The values below come from PubChem BioAssay AID489032 (Sanford-Burnham Center for Chemical Genomics, 2010).

pEC50: −log10 of the molar value. Active and inactive are the calls of the source. How the calls were made is not given here.

The experiment has as its system UPR adaptive arm reporter cells, luciferase luminescence. Briefly: activators of adaptive UPR signalling, dose response, cell-based, luciferase luminescence (AID 489032).
`CCOC(=O)C1=C(C)N=C2SC(C(=O)OC)=CC(=O)N2C1c1ccc(F)cc1` (stereo unspecified): the EC50 is 32.6 µM (inactive).

Consider `O=C(Nc1nc(-c2ccc3ccccc3c2)cs1)c1ccc(N2C(=O)CCC2=O)cc1`, for which the EC50 is > 80 µM (inactive).

Take `CCOC(=O)c1nnc(-c2ccccc2)nc1Oc1ccc(Cl)cc1`: the EC50 was > 80 µM (inactive).

On to `Cc1c(CCOC(=O)C23CC4(C)CC(C)(CC(C)(C4)C2)C3)sc[n+]1CC(=O)c1ccccc1`, for which the EC50 was > 80 µM (inactive).

Take `COC(=O)Cc1csc(/N=C/c2c(O)n(-c3cccc(C(F)(F)F)c3)c(=O)c3ccccc23)n1`: the EC50 is > 80 µM (inactive).

Turning to `O=C(C[C@H]1C/C=C\C[C@@H](NC(=O)OCC2c3ccccc3-c3ccccc32)C(=O)O[C@@H](c2ccccc2)CNC1=O)N[C@H](CO)Cc1ccccc1`, the pEC50 is 4.70.

For `COc1cc2[nH]c3c(N4CCN(c5ccc(Cl)cc5)CC4)ncnc3c2cc1OC`, the EC50 was > 80 µM (inactive).

For the compound `Cc1cccc(N2CCN(C(=S)Nc3ccc4nc(N5CCN(C)CC5)cc(C)c4c3)CC2C)c1` (stereo unspecified), the EC50 was > 80 µM (inactive).

Regarding `O=C(NCC1CCCO1)c1nn2c(C(F)(F)F)cc(-c3cc(Br)cs3)nc2c1Br` (stereo unspecified), the EC50 was > 80 µM (inactive).

For the compound `O=C(Nc1ccc2oc(-c3ccccc3Cl)nc2c1)c1cncc(Br)c1`, the EC50 was > 80 µM (inactive).

As for `Cc1ccc(C2=Nc3ccc(Br)cc3C(c3ccncc3)=NN2)cc1`, the EC50 is 24 µM (inactive).

Turning to `Cc1cc(C)c2c(c1)/C(=c1/sc3n(c1=O)CN(c1ccccc1)CN=3)C(=O)N2`, the pEC50 is 4.72.

`COc1cc(NC(=O)c2cccs2)ccc1NC(=O)c1cc2ccccc2o1`: the EC50 is > 80 µM (inactive).

On to `CCCCN(CC)S(=O)(=O)c1ccc(C(=O)N(CCCN(C)C)c2nc3cc(C)cc(C)c3s2)cc1`, for which the EC50 was > 80 µM (inactive).

With `COc1ccccc1-c1cc(-c2ccccc2)nc(SC(C(N)=O)c2ccccc2)c1C#N` (stereo unspecified), the EC50 is 71.2 µM (inactive).

Consider `COc1ccc(Br)cc1-c1nc2c(c(=O)[nH]c(=O)n2Cc2ccccc2)n1C`, for which the EC50 is 63.1 µM (inactive).

As for `O=S(=O)(c1ccc2nc(-c3ccccc3)[nH]c2c1)N1CCN(c2ccc(Cl)cc2)CC1`, the EC50 is > 80 µM (inactive).

As to `Cc1ccc2nc(Nc3nc(-c4ccccc4)cc(=O)[nH]3)nc(C)c2c1`, the pEC50 is 4.71.

In the case of `O=C(Nc1nc2ccccc2s1)c1cc2c(s1)-c1ccccc1OC2`, the EC50 was 44.9 µM (inactive).

Turning to `Cc1ccc2c(c1)C(c1ccc([N+](=O)[O-])cc1)=NNC(c1ccc(Br)cc1)=N2`, the EC50 was > 80 µM (inactive).

For `Cc1ccc(CN2C(=O)C(=O)c3cc(C)ccc32)cc1`, the EC50 was 58.6 µM (inactive).

Consider `COc1cccc(-n2c(SCC(=O)N3CCc4ccccc43)nnc2-c2c[nH]c3ccccc23)c1`, for which the EC50 is > 80 µM (inactive).

Turning to `O=C(Nc1ccc(SC(F)F)cc1)c1cc(-c2ccncc2)nc2ccccc12`, the EC50 is 34.7 µM (inactive).

For the compound `COc1ccc2c(c1)[nH]c1c(=O)n(/N=C/C3C(C)C=C(C)CC3C)c(=O)[nH]c12` (stereo unspecified), the EC50 was 65.8 µM (inactive).

As for `CCOC(=O)c1ccc(-c2ccc(/C=N/NC(=O)CN(c3cccc(C)c3)S(C)(=O)=O)o2)cc1`, the pEC50 was 4.74.

For the compound `Cc1ccc2nc(Nc3nc(C)cc(-c4ccccc4)n3)[nH]c(=O)c2c1`, the EC50 was > 80 µM (inactive).

`COc1cc(C(=O)Nc2nc(-c3ccc(Cl)cc3)c(C)s2)ccc1OCC(=O)Nc1ccc(F)cc1`: the EC50 is > 80 µM (inactive).

Turning to `Brc1cc2c(cc1/C=N/Nc1nc3ccccc3s1)OCO2`, the EC50 is 57 µM (inactive).

For `Cn1nnnc1Sc1ncnc2scc(-c3ccc(Br)cc3)c12`, the EC50 is > 80 µM (inactive).

As for `O=C(Nc1ccc(Oc2ccc(NC(=O)Nc3ccccc3Cl)cc2)cc1)Nc1ccccc1Cl`, the EC50 was > 80 µM (inactive).

Take `COc1cc(/C=C(\C#N)c2nc3ccccc3[nH]2)cc(Br)c1OCc1ccc(F)cc1`: the EC50 is > 80 µM (inactive).

In the case of `CC(C)c1ccc(C2C3=C(COC3=O)Nc3cc4c(cc32)OCO4)cc1` (stereo unspecified), the EC50 is 48.9 µM (inactive).

Turning to `Cc1ccc(-c2nnc(-c3ccc(NC(=O)c4cccs4)cc3)o2)cc1`, the pEC50 is 4.80.

For `Cn1c(/C=C/c2ccc(Cl)cc2Cl)c([N+](=O)[O-])c(=O)n(C)c1=O`, the EC50 was > 80 µM (inactive).

Turning to `Cc1ccc(NC(=O)c2cc(S(=O)(=O)N(C)C)ccc2N2CCCC2)cc1F`, the EC50 was 37.6 µM (inactive).

With `O=c1cc2oc3cc(O)c(O)cc3c(-c3ccccc3[N+](=O)[O-])c-2cc1O`, the EC50 was > 80 µM (inactive).

In the case of `COc1ccc(OC)c(-c2nnc3n2N=C(c2ccc(OC)c(OCC4CC4)c2)CS3)c1`, the EC50 is > 80 µM (inactive).

Regarding `COc1cc(-c2ccc3oc(-c4ccsc4)cc3c2)cc(OC)c1OC`, the EC50 is > 80 µM (inactive).

`COc1ccc(N=c2oc3ccc(OC)cc3cc2-c2nc3ccccc3[nH]2)cc1`: the pEC50 is 4.82.

As to `NC(=O)CC(NC(=O)Cc1cccc2ccccc12)c1ccc(NCCOc2ccccc2)c([N+](=O)[O-])c1` (stereo unspecified), the EC50 was > 80 µM (inactive).

On to `FC(F)(F)c1nc2ccccc2n2c(-c3ccc(Cl)cc3)nnc12`, for which the EC50 is > 80 µM (inactive).

In the case of `C=CCN(CC=C)S(=O)(=O)c1ccc(C(=O)Nc2nc3c(s2)CCc2ccccc2-3)cc1`, the EC50 is 39.9 µM (inactive).

For `C/C(CCC12CC3CC(CC(C3)C1)C2)=N\NC(N)=S`, the EC50 was 27.3 µM (inactive).

`C#CCn1c(=NC(=O)c2ccc(S(=O)(=O)N3CCc4ccccc4C3)cc2)sc2cc(S(N)(=O)=O)ccc21`: the EC50 is > 80 µM (inactive).

In the case of `CCCCNc1c(-c2ccc(-c3ccc(C(C)=O)cc3)c(OC)c2)nc2cc(C)ccn12`, the EC50 was > 80 µM (inactive).

Take `COc1ccc(-c2nn(-c3ccccc3)cc2/C=N/N2C(=O)CSC2=S)cc1`: the EC50 was > 80 µM (inactive).

On to `O=C(NC1CCCCC1)c1cccc2c1C(=O)c1ccc(-c3ccc(OC(F)(F)F)cc3)cc1S2(=O)=O`, for which the EC50 is > 80 µM (inactive).

As for `C/C(=N\Nc1ncnc2sc(C)c(C)c12)c1ccccn1`, the EC50 was > 80 µM (inactive).

Turning to `Cc1ccc(-c2nnn(CC(=O)N(Cc3cccs3)C(C(=O)NC3CCCCC3)c3ccco3)n2)o1` (stereo unspecified), the EC50 was > 80 µM (inactive).

For the compound `COC(=O)c1sccc1NC(=O)c1cc(-c2cccc(C)c2)nc2ccccc12`, the EC50 is > 80 µM (inactive).

As to `Cc1ccc(O)c(NC(=S)NC(=O)Cc2ccc(Cl)cc2)c1`, the EC50 was 27.1 µM (inactive).

On to `COc1ccc(OC)c(Nc2nc(NCc3ccco3)nc(N)c2[N+](=O)[O-])c1`, for which the EC50 is > 80 µM (inactive).

On to `O=C(C[C@H]1C[C@H](C(=O)N2CCCCC2)[C@@]2(CCc3ccccc3)c3[nH]c4ccc(Cl)cc4c3CCN2C1=O)NCCC1=CCCCC1`, for which the EC50 was > 80 µM (inactive).

For `CCN(CC)S(=O)(=O)c1ccc(N/N=C(\C)c2ccc3c(c2)OCO3)c([N+](=O)[O-])c1`, the EC50 is 22.1 µM (inactive).

With `c1ccc(N=Nc2ccc3cccccc2-3)cc1`, the EC50 was > 80 µM (inactive).

As for `COc1ccc(C(=O)Nc2cccc(/C=C/c3nc4ccccc4c(=O)[nH]3)c2)cc1`, the EC50 is > 80 µM (inactive).

In the case of `O=c1cc(C(Cl)(Cl)Cl)oc2c1ccc1ccccc12`, the pEC50 was 4.74.

For `Cc1cnc(NC(=O)c2cc(S(=O)(=O)N(C)C)ccc2N2CCCC2)s1`, the pEC50 is 5.18.

Turning to `CC(C)(C)c1csc(NC(=O)c2ccc(Cl)s2)n1`, the EC50 is > 80 µM (inactive).

With `Nc1nc(Nc2cccc(C(F)(F)F)c2)nc(C(F)(F)F)n1`, the EC50 is 56.6 µM (inactive).

On to `CCOc1ccc(NC(=S)NC(=O)/C=C/c2ccc(C)cc2)c([N+](=O)[O-])c1`, for which the EC50 was > 80 µM (inactive).

For `COc1ccc(N2CCN(Cc3nc(N)nc(Nc4ccc(C)c(Cl)c4)n3)CC2)cc1`, the pEC50 was 4.74.

In the case of `CN(C)c1ccc(/C=C/[N+](=O)[O-])cc1`, the EC50 was > 80 µM (inactive).

For `Cc1ccc2c(c1)C(=O)C(=O)N2Cc1ccc(Br)cc1`, the EC50 is 59.8 µM (inactive).

For the compound `O=C1c2cccc3cc(Br)cc(c23)C(=O)N1Nc1ccc(Br)cc1`, the EC50 is > 80 µM (inactive).

On to `CN1Cc2c(N3CCOCC3)nc3sc(C(=O)c4ccc(Br)cc4)c(N)c3c2CC1(C)C`, for which the EC50 was > 80 µM (inactive).

Take `Cc1nc(SCC(=O)Nc2ccc(F)cc2)c(C#N)c(C)c1CC(=O)c1ccc(Br)cc1`: the EC50 was > 80 µM (inactive).

On to `Cc1ccc(C(=O)Cn2c(C(=O)/C=C/c3ccccc3)nc3ccccc32)cc1`, for which the EC50 was 44.8 µM (inactive).

For `O=C(Cc1ccccc1)c1c[nH]c(C(=O)C(Cl)(Cl)Cl)c1`, the EC50 was > 80 µM (inactive).

For `CCOC(=O)C1=C(C)N=C2c3ccccc3C(=O)C2C1c1ccc(C)cc1` (stereo unspecified), the EC50 was > 80 µM (inactive).

For the compound `CCCc1nc2c(c(=O)c3ccccc3n2C)c(=O)n1C1CCCCCC1`, the EC50 was > 80 µM (inactive).

With `Cc1ccc(-n2c(O)c(/C=N/c3ncc(Br)cc3Br)c(=O)[nH]c2=O)cc1`, the EC50 is 26.8 µM (inactive).

For `CC1CCC(C(C)C)C(OC(=O)Cn2c(-c3ccc(Cl)cc3)[n+](C)c3ccccc32)C1` (stereo unspecified), the EC50 is > 80 µM (inactive).

Turning to `O=C(/C=C/c1ccccc1)c1ccccc1O`, the EC50 is > 80 µM (inactive).

Turning to `CC(C)N=C(NS(=O)(=O)c1ccccc1)C(Cl)(Cl)Cl`, the EC50 was > 80 µM (inactive).

Turning to `Brc1cc(Br)c2ncnc(N3CCCCC3)c2c1`, the EC50 is 44.5 µM (inactive).

Take `CCCOC(=O)c1cccc(Nc2nc(-c3cccnc3)nc3ccccc23)c1`: the EC50 was > 80 µM (inactive).

On to `C/C(=N/Nc1cc(-c2ccccc2)nc(-c2ccccc2)n1)c1ccc(O)cc1`, for which the pEC50 was 4.70.

Take `CCOc1cc(/C=C2/NC(=S)NC2=O)ccc1OCc1ccc([N+](=O)[O-])cc1`: the EC50 is > 80 µM (inactive).

On to `Cc1cccc(NC(=O)CSc2nc(C)c(CC(=O)c3ccc(Br)cc3)c(C)c2C#N)c1C`, for which the EC50 was > 80 µM (inactive).

Take `COc1ccc(C2c3ccc4ccccc4c3Oc3ncn(CCCN(C)C)c(=N)c32)cc1` (stereo unspecified): the EC50 was > 80 µM (inactive).
